According to patent publication US20220257540A1, “COMPOSITIONS AND METHODS FOR TREATMENT OF HEPATITIS B VIRUS INFECTION” (ANHUI RONGHANG BIOTECH DEVELOPMENT CO., LTD., priority 2019, published 2022):

Experiments:
P-gp = P-gp (Homo sapiens, UniProt P08183); settings: cited from earlier work
HBV GT C = assay: In vitro anti-HBV efficacy in HBV-infected PXB-cells; format: cell-based; settings: for Extracellular HBeAg: Day 27, 10 fold diluted sample
Method: Materials & Methods: PXB-cells was infected with HBV GT C. […] The anti-HBV therapeutic efficacy was measured by the analysis of extracellular HBV DNA, HBsAg, HBeAg, h-Alb, and intracellular HBV DNA/cceDNA levels. Entecavir was used as the positive control. The hepatocytes isolated from 3 mice were combined to seed culture plate. The cell density of mixed cell was 7.37×10^6 cells/mL. PXB-cells® are the fresh hepatocytes which are isolated from PXB-mice. Cells viability after isolation: >80%. Donor Hepatocytes were purchased from Corning, Incorporated (Tewksbury, Mass., USA), Lot: BD195 ([…]). […] Entecavir was purchased from Santa-cruz, Lot: 10914, Concentration: 1 mM. Plates was observed under microscopy and photographed.

P-gp, sequence (P08183 whole entry): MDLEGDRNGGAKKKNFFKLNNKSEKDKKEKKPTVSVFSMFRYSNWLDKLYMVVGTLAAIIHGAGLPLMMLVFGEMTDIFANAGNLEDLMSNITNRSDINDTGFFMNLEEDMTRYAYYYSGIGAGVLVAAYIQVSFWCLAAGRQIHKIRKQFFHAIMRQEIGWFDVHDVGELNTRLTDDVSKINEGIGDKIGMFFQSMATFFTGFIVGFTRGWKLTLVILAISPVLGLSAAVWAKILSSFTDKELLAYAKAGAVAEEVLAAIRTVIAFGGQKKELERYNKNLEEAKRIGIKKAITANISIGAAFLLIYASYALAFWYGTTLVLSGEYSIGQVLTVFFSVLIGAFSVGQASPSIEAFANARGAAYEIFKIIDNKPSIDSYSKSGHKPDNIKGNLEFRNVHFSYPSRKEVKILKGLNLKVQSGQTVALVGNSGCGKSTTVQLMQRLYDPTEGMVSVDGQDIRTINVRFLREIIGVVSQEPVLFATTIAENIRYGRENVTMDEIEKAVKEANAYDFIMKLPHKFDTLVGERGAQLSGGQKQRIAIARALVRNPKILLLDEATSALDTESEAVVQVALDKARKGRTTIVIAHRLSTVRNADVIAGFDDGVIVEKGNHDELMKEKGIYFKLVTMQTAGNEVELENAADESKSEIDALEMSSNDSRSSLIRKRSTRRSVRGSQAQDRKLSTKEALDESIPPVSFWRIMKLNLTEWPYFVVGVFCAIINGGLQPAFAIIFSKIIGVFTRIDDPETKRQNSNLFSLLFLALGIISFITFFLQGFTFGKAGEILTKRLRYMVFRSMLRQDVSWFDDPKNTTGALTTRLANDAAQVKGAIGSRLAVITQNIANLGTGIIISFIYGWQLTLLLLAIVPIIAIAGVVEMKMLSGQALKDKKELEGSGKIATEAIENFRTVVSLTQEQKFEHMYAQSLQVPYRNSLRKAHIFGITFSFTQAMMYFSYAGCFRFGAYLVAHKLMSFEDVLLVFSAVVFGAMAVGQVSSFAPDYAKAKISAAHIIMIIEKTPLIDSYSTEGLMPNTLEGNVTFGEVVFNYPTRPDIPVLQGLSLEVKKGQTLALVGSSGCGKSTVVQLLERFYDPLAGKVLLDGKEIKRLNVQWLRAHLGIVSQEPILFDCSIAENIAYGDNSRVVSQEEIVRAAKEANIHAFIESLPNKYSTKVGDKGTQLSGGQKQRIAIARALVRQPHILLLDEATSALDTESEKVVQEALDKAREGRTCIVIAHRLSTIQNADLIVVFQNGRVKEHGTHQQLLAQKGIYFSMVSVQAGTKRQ

SMILES: CCOC/C=C/c1ccc(-c2nc(-c3ccc(NC(C)C)cc3)c(-c3ccc(NC(C)C)cc3)[nH]2)cc1 [OC144093, 4-[2-[4-[(E)-3-ethoxyprop-1-enyl]phenyl]-4-[4-(propan-2-ylamino)phenyl]-1H-imidazol-5-yl]-N-propan-2-ylaniline]
- potency relative to the first and second-generation P-gp inhibitors (P-gp): about 10 fold

SMILES: C=C1[C@H](CO)[C@@H](O)C[C@@H]1n1cnc2c(=O)[nH]c(N)nc21 [Entecavir]
- Extracellular HBV DNA (HBV GT C; Entecavir 9.8 pM, Day 27): 6.36 Log copies/mL
- Extracellular HBsAg (HBV GT C; Entecavir 9.8 pM, Day 27): 16.0 IU/mL
- Intracellular HBV DNA (HBV GT C; Entecavir 9.8 pM, Day 27): 91546 copies/100 ng DNA
- Intracellular cccDNA (HBV GT C; Entecavir 9.8 pM, Day 27): 125 copies/100 ng DNA
- Extracellular HBeAg (HBV GT C; Entecavir 9.8 pM): 11.6 C.O.I
- Extracellular HBV DNA (HBV GT C; Entecavir 19.5 pM, Day 27): 5.76 Log copies/mL
- Extracellular HBsAg (HBV GT C; Entecavir 19.5 pM, Day 27): 14.2 IU/mL
- Intracellular HBV DNA (HBV GT C; Entecavir 19.5 pM, Day 27): 53766 copies/100 ng DNA
- Intracellular cccDNA (HBV GT C; Entecavir 19.5 pM, Day 27): 82 copies/100 ng DNA
- Extracellular HBeAg (HBV GT C; Entecavir 19.5 pM): 10.0 C.O.I
- Extracellular HBV DNA (HBV GT C; Entecavir 39.1 pM, Day 27): 5.06 Log copies/mL
- Extracellular HBsAg (HBV GT C; Entecavir 39.1 pM, Day 27): 12.2 IU/mL
- Intracellular HBV DNA (HBV GT C; Entecavir 39.1 pM, Day 27): 30701 copies/100 ng DNA
- Intracellular cccDNA (HBV GT C; Entecavir 39.1 pM, Day 27): 69 copies/100 ng DNA
- Extracellular HBeAg (HBV GT C; Entecavir 39.1 pM): 8.1 C.O.I
- Extracellular HBV DNA (HBV GT C; Entecavir 78.1 pM, Day 27): 4.66 Log copies/mL
- Extracellular HBsAg (HBV GT C; Entecavir 78.1 pM, Day 27): 15.7 IU/mL
- Intracellular HBV DNA (HBV GT C; Entecavir 78.1 pM, Day 27): 14257 copies/100 ng DNA
- Intracellular cccDNA (HBV GT C; Entecavir 78.1 pM, Day 27): 82 copies/100 ng DNA
- Extracellular HBeAg (HBV GT C; Entecavir 78.1 pM): 9.8 C.O.I
- Extracellular HBV DNA (HBV GT C; Entecavir 156.3 pM, Day 27): 4.56 Log copies/mL
- Extracellular HBsAg (HBV GT C; Entecavir 156.3 pM, Day 27): 15.1 IU/mL
- Intracellular HBV DNA (HBV GT C; Entecavir 156.3 pM, Day 27): 5620 copies/100 ng DNA
- Intracellular cccDNA (HBV GT C; Entecavir 156.3 pM, Day 27): 61 copies/100 ng DNA
- Extracellular HBeAg (HBV GT C; Entecavir 156.3 pM): 9.6 C.O.I
- Extracellular HBV DNA (HBV GT C; Entecavir 312.5 pM, Day 27): 4.46 Log copies/mL
- Extracellular HBsAg (HBV GT C; Entecavir 312.5 pM, Day 27): 14.3 IU/mL
- Intracellular HBV DNA (HBV GT C; Entecavir 312.5 pM, Day 27): 3752 copies/100 ng DNA
- Intracellular cccDNA (HBV GT C; Entecavir 312.5 pM, Day 27): 34 copies/100 ng DNA
- Extracellular HBeAg (HBV GT C; Entecavir 312.5 pM): 9.4 C.O.I
- Extracellular HBV DNA (HBV GT C; Entecavir 625 pM, Day 27): 4.46 Log copies/mL
- Extracellular HBsAg (HBV GT C; Entecavir 625 pM, Day 27): 13.0 IU/mL
- Intracellular HBV DNA (HBV GT C; Entecavir 625 pM, Day 27): 2954 copies/100 ng DNA
- Intracellular cccDNA (HBV GT C; Entecavir 625 pM, Day 27): +
- Extracellular HBeAg (HBV GT C; Entecavir 625 pM): 8.9 C.O.I
- Extracellular HBV DNA (HBV GT C; Entecavir 1.25 nM, Day 27): 4.46 Log copies/mL
- Extracellular HBsAg (HBV GT C; Entecavir 1.25 nM, Day 27): 11.2 IU/mL
- Intracellular HBV DNA (HBV GT C; Entecavir 1.25 nM, Day 27): 3031 copies/100 ng DNA
- Intracellular cccDNA (HBV GT C; Entecavir 1.25 nM, Day 27): +
- Extracellular HBeAg (HBV GT C; Entecavir 1.25 nM): 6.9 C.O.I
- Extracellular HBV DNA (HBV GT C; Entecavir 5 nM, Day 27): 4.26 Log copies/mL
- Extracellular HBsAg (HBV GT C; Entecavir 5 nM, Day 27): 10.9 IU/mL
- Intracellular HBV DNA (HBV GT C; Entecavir 5 nM, Day 27): 2974 copies/100 ng DNA
- Intracellular cccDNA (HBV GT C; Entecavir 5 nM, Day 27): 33 copies/100 ng DNA
- Extracellular HBeAg (HBV GT C; Entecavir 5 nM): 7.1 C.O.I
- Extracellular HBV DNA (HBV GT C; Entecavir 10 nM, Day 27): 4.46 Log copies/mL
- Extracellular HBsAg (HBV GT C; Entecavir 10 nM, Day 27): 11.6 IU/mL
- Intracellular HBV DNA (HBV GT C; Entecavir 10 nM, Day 27): 2936 copies/100 ng DNA
- Intracellular cccDNA (HBV GT C; Entecavir 10 nM, Day 27): +
- Extracellular HBeAg (HBV GT C; Entecavir 10 nM): 7.4 C.O.I
- anti-HBV efficacy (HBV GT C; HBV-infected PXB-cells, Day 27): anti-HBV efficacy in a dose dependent manner

SMILES: COc1cc2c(cc1OC)CN(CCc1ccc(NC(=O)c3cc(OC)c(OC)cc3NC(=O)c3cnc4ccccc4c3)cc1)CC2 [XR9576, N-[2-[[4-[2-(6,7-Dimethoxy-3,4-dihydro-1H-isoquinolin-2-yl)ethyl]phenyl]c-arbamoyl]-4,5-dimethoxyphenyl]quinoline-3-carboxamide]
- potency relative to the first and second-generation P-gp inhibitors (P-gp): about 10 fold
